Our source for the binding values is PMC5494547 (2015).

Each structure is given as a SMILES string.

The test system of assay [1] is MBA1 (DNA, aptamer) TACACTGGGGAGTATTGCGGAGGAAGTGTA
The experiment in a line: circular dichroism. The conditions noted are these: 1 µM MBA1, 50 mM ATP; quadruplex bands at 265 and 295 nm.

Assay [2] concerns MBA3 (DNA, aptamer) GCGCGCGGGGAGTATTGCGGAGGAGCGCGC
The experiment in a line: circular dichroism. The conditions noted are these: CD unchanged by PPFP-Br; tighter folded G-quadruplex than ATP/MBA1.

Consider `Nc1ncnc2c1ncn2[C@@H]1O[C@H](COP(=O)(O)OP(=O)(O)OP(=O)(O)O)[C@@H](O)[C@H]1O`, for which the binding entry in assay [1] and in assay [2] was “yes” each time.
